≈ marks a conversion by molar mass, not a printed value. Non-standard residues stand in square brackets, D forms with d. Residues, ends and D or L forms follow the SMILES beside them.
Assays:
[1] = tested on: human erythrocytes; experiment: Hemolytic activity (HC50); format: cell-based; details: 1 hour incubation at 37 °C; human red blood cells; Figure 8, 100% control 0.1% Triton-X 100
[2] = tested on: human erythrocytes; experiment: Hemolytic activity (HC50); format: cell-based
Protocol: Hemoglobin release was determined spectrophotometrically at 570 nm.
From these plots, the HC50 values, the peptide concentration that produces 50% hemolysis of human red blood cells after 18 hours in the standard microtiter dilution method was determined.

[3] = tested on: P. aeruginosa strain PAO1; details: source human wound; Mueller-Hinton medium, 37 °C, 24 h, 5 × 10^5 CFU/mL; three sets of determinations
Excerpt: (§1) P. aeruginosa strains used are as follows: strain PAO1 was isolated from a human wound in 1955 in Australia; strain WR5 was isolated from a burn patient at Walter Reed Army Hospital, Washington, DC, USA, in 1976 and is a natural toxA^− mutant, but is virulent in experimental mouse models; strain PAK was originally isolated at Memorial University, St. John’s, Newfoundland, Canada, and is widely used in the analysis of pili; strain PA14 was originally isolated as a clinical isolate in 1995 at the Massachusetts General Hospital, Boston, MA, USA and is virulent in a variety of plant and animal models of infection; strain M2 was originally isolated in 1975 from the gastrointestinal tract of a healthy CF1 mouse, University of Cincinnati College of Medicine, and Shriners Burns Institute, Cincinnati, OH, USA and is virulent in a burn mouse model of P. aeruginosa infection; and strain CP204 was isolated from a cystic fibrosis patient in 1989 at the National Jewish Medical and Research Center, Denver, CO, USA. All strains have been maintained at −80 °C in the laboratory of Michael Vasil, University of Colorado, School of Medicine.
(§2) The minimal inhibitory concentration (MIC) is defined as the lowest peptide concentration that inhibited bacterial growth. MICs were measured by a standard microtiter dilution method in Mueller Hinton (MH) medium. Briefly, cells were grown overnight at 37 °C in MH broth and were diluted in the same medium. […] The plates were incubated at 37 °C for 24 h, and the MICs were determined.

[4] = tested on: P. aeruginosa strain PAK; details: Mueller-Hinton medium, 37 °C, 24 h, 5 × 10^5 CFU/mL; three sets of determinations
Excerpt: as §1, §2

[5] = tested on: P. aeruginosa strain CP204; details: source cystic fibrosis patient; Mueller-Hinton medium, 37 °C, 24 h, 5 × 10^5 CFU/mL; three sets of determinations
Excerpt: as §1, §2

[6] = tested on: P. aeruginosa strain WR5; details: source burn patient; Mueller-Hinton medium, 37 °C, 24 h, 5 × 10^5 CFU/mL; three sets of determinations
Excerpt: as §1, §2

[7] = tested on: P. aeruginosa strain M2; details: source burn mouse model; Mueller-Hinton medium, 37 °C, 24 h, 5 × 10^5 CFU/mL; three sets of determinations
Excerpt: as §1, §2

[8] = tested on: P. aeruginosa strain PA14; details: Mueller-Hinton medium, 37 °C, 24 h, 5 × 10^5 CFU/mL; three sets of determinations
Excerpt: as §1, §2

[9] = tested on: Acinetobacter baumannii (11 different isolates); format: cell-based; details: geometric mean of the MIC values from 11 different isolates of A. baumannii; Table 3A
Excerpt: (§3) All the A. baumannii strains used in this study were (1) obtained from the collection of Dr. Anthony A. Campagnari at the University of Buffalo and originally isolated from different patients and organs/tissues (strain 649, blood; strain 689, groin; strain 759, gluteus; strain 821, urine; strain 884, axilla; strain 899, perineum; strain 964, throat; strain 985, pleural fluid and strain 1012, sputum); (2) were purchased from the American Type Culture Collection (ATCC, Manassas, VA, USA) (strain ATCC 17978, fatal meningitis; and strain ATCC 19606, urine).
(§4) The minimal inhibitory concentration (MIC) is defined as the lowest peptide concentration that inhibited bacterial growth. MICs were measured by a standard microtiter dilution method in Mueller Hinton (MH) medium. Briefly, cells were grown overnight at 37 °C in MH broth and were diluted in the same medium. Serial dilutions of the peptides were added to the microtiter plates in a volume of 50 µL, followed by the addition of 50 µL of bacteria to give a final inoculum of 5 × 10^5 colony-forming units (CFU)/mL. The plates were incubated at 37 °C for 24 h, and the MICs were determined.
Antibacterial activities against six strains of P. aeruginosa and eleven strains of A. baumannii are compared in Table 3. Geometric mean of MIC values was calculated to provide an overall view of antimicrobial activity of different analogs. It is clear that our peptides were effective in killing the microorganisms tested. Compared to a dramatic reduction in hemolytic activity, antibacterial activity of D-piscidin 1 and D-dermaseptin S4 analogs against eleven strains of A. baumannii maintained the same level (within 2-fold) upon the substitution of “specificity determinant(s)” (Table 3).

[10] = tested on: A. baumannii strain 1012; format: cell-based, Acinetobacter baumannii; details: source sputum; Mueller-Hinton medium, 37 °C, 24 h, 5 × 10^5 CFU/mL; three sets of determinations
Excerpt: as §3, §4

[11] = tested on: A. baumannii strain 689; format: cell-based, Acinetobacter baumannii; details: source groin; Mueller-Hinton medium, 37 °C, 24 h, 5 × 10^5 CFU/mL; three sets of determinations
Excerpt: as §3, §4

[12] = tested on: A. baumannii strain 899; format: cell-based, Acinetobacter baumannii; details: source perineum; Mueller-Hinton medium, 37 °C, 24 h, 5 × 10^5 CFU/mL; three sets of determinations
Excerpt: as §3, §4

[13] = tested on: A. baumannii strain 964; format: cell-based, Acinetobacter baumannii; details: source throat; Mueller-Hinton medium, 37 °C, 24 h, 5 × 10^5 CFU/mL; three sets of determinations
Excerpt: as §3, §4

[14] = tested on: A. baumannii strain 985; format: cell-based, Acinetobacter baumannii; details: source pleural fluid; Mueller-Hinton medium, 37 °C, 24 h, 5 × 10^5 CFU/mL; three sets of determinations
Excerpt: as §3, §4

[15] = tested on: A. baumannii strain ATCC 17978; format: cell-based, Acinetobacter baumannii; details: ATCC 17978, 24 h
Excerpt: as §3, §4

[16] = tested on: A. baumannii strain 649; experiment: MIC, microtiter dilution; format: cell-based, Acinetobacter baumannii; details: source blood; Mueller-Hinton medium, 37 °C, 24 h, 5 × 10^5 CFU/mL; three sets of determinations
Excerpt: as §3, §4

[17] = tested on: A. baumannii strain 821; experiment: MIC, microtiter dilution; format: cell-based, Acinetobacter baumannii; details: source urine; Mueller-Hinton medium, 37 °C, 24 h, 5 × 10^5 CFU/mL; three sets of determinations
Excerpt: as §3, §4

[18] = tested on: A. baumannii strain 884; experiment: MIC, microtiter dilution; format: cell-based, Acinetobacter baumannii; details: source axilla; Mueller-Hinton medium, 37 °C, 24 h, 5 × 10^5 CFU/mL; three sets of determinations
Excerpt: as §3, §4

[19] = tested on: A. baumannii strain 759; experiment: MIC, microtiter dilution; format: cell-based, Acinetobacter baumannii; details: source gluteus; Mueller-Hinton medium, 37 °C, 24 h, 5 × 10^5 CFU/mL; three sets of determinations
Excerpt: as §3, §4

[20] = tested on: A. baumannii strain ATCC 19606; experiment: MIC, microtiter dilution; format: cell-based, Acinetobacter baumannii; details: source urine; Mueller-Hinton medium, 37 °C, 24 h, 5 × 10^5 CFU/mL; three sets of determinations
Excerpt: as §3, §4

[21] = tested on: Pseudomonas aeruginosa (6 different isolates); details: geometric mean of the MIC values from 6 different isolates of P. aeruginosa; Table 3B
Excerpt: as §1, §2
Geometric mean of MIC values was calculated to provide an overall view of antimicrobial activity of different analogs.

SMILES: CC[C@@H](C)[C@@H](NC(=O)[C@H]1CCCN1C(=O)[C@@H](CCCNC(=N)N)NC(=O)[C@@H](Cc1ccccc1)NC(=O)[C@H](NC(=O)[C@@H](Cc1c[nH]cn1)NC(=O)[C@@H](Cc1c[nH]cn1)NC(=O)[C@@H](Cc1ccccc1)NC(=O)[C@H](N)Cc1ccccc1)[C@H](C)CC)C(=O)N[C@@H](C(=O)N[C@H](Cc1c[nH]cn1)C(=O)N[C@@H](C(=O)NCC(=O)N[C@H](CCCCN)C(=O)N[C@@H](C(=O)N[C@@H](C(=O)N[C@H](Cc1c[nH]cn1)C(=O)N[C@H](CCCNC(=N)N)C(=O)N[C@H](CC(C)C)C(=O)N[C@@H](C(=O)N[C@@H](C(=O)NCC(N)=O)[C@H](C)O)C(C)C)[C@H](C)CC)[C@H](C)O)C(C)C)C(C)C [D-Piscidin 1 G8P] (H-[dF][dF][dH][dH][dI][dF][dR][dP][dI][dV][dH][dV]G[dK][dT][dI][dH][dR][dL][dV][dT]G-NH2)
- Hemolytic activity HC50, 1 hour [1]: 55 µM
- Hemolytic activity HC50, 18 hours (Figure 8 comparison) ([2]; 18 hours at 37 °C, human red blood cells, Figure 8, 100% control 0.1% Triton-X 100): 8 µM

SMILES: CC[C@@H](C)[C@@H](NC(=O)CNC(=O)[C@@H](CCCNC(=N)N)NC(=O)[C@@H](Cc1ccccc1)NC(=O)[C@H](NC(=O)[C@@H](Cc1c[nH]cn1)NC(=O)[C@@H](Cc1c[nH]cn1)NC(=O)[C@@H](Cc1ccccc1)NC(=O)[C@H](N)Cc1ccccc1)[C@H](C)CC)C(=O)N[C@@H](C(=O)N[C@H](Cc1c[nH]cn1)C(=O)N[C@@H](C(=O)NCC(=O)N[C@H](CCCCN)C(=O)N[C@@H](C(=O)N[C@@H](C(=O)N[C@H](Cc1c[nH]cn1)C(=O)N[C@H](CCCNC(=N)N)C(=O)N[C@H](CC(C)C)C(=O)N[C@@H](C(=O)N[C@@H](C(=O)NCC(N)=O)[C@H](C)O)C(C)C)[C@H](C)CC)[C@H](C)O)C(C)C)C(C)C [D-Piscidin 1] (H-[dF][dF][dH][dH][dI][dF][dR]G[dI][dV][dH][dV]G[dK][dT][dI][dH][dR][dL][dV][dT]G-NH2)
- MIC PAO1 [3]: 24.3 µM (≈ 62.5 µg/mL)
- MIC PAK [4]: 12.2 µM (≈ 31.4 µg/mL)
- MIC CP204 [5]: 24.3 µM (≈ 62.5 µg/mL)
- MIC WR5 [6]: 12.2 µM (≈ 31.4 µg/mL)
- MIC M2 [7]: 24.3 µM (≈ 62.5 µg/mL)
- MIC PA14 [8]: 24.3 µM (≈ 62.5 µg/mL)
- MIC GM [9]: 2.8 µM (≈ 7.2 µg/mL)
- MIC 1012 [10]: 6.1 µM (≈ 15.7 µg/mL)
- MIC 689 [11]: 1.5 µM (≈ 3.86 µg/mL)
- MIC 899 [12]: 3.0 µM (≈ 7.71 µg/mL)
- MIC 964 [13]: 3.0 µM (≈ 7.71 µg/mL)
- MIC 985 [14]: 1.5 µM (≈ 3.86 µg/mL)
- MIC ATCC17978 [15]: 3.0 µM (≈ 7.71 µg/mL)
- MIC 649 [16]: 3.0 µM (≈ 7.71 µg/mL)
- MIC 821 [17]: 3.0 µM (≈ 7.71 µg/mL)
- MIC 884 [18]: 3.0 µM (≈ 7.71 µg/mL)
- MIC 759 [19]: 3.0 µM (≈ 7.71 µg/mL)
- MIC ATCC19606 [20]: 3.0 µM (≈ 7.71 µg/mL)
- Hemolytic activity Fold improvement in HC50 [2]: 1.0 fold
- Hemolytic activity HC50 ([2]; concentration giving 50% hemolysis after 18 h at 37 °C, 1% human erythrocytes in PBS pH 7.4, hemoglobin release at 570 nm, 100% control water (Figure 7)): 1.8 µM
- MIC GM [21]: 19.3 µM (≈ 49.6 µg/mL)

Reference: publication PMC4014698 (Pharmaceuticals, 2014)
